Results: patent US9828342B2, “Isatin derivatives, pharmaceutical compositions thereof, and methods of use thereof” (CITY OF HOPE, priority 2012, dated 2017)
Where two headings read alike, the source gives them in different places. One block for each compound: values may come before it.

Assays:
Format in all cases: cell-based
[1] = tested on: A2058 human melanoma cells; experiment: MTS cell viability assay in A2058 melanoma cells
Description: (§1) Then, MTS assays for cell viability were carried out to determine the IC50 values. Four samples were tested for each isatin derivative at each concentration in each cell line, and the averaged data were shown in Table 2a and FIGS. 1˜4.
(§2) IC50 of values of isatin derivatives Compounds 101˜123 were determined in cancer cell lines DU145 and A2058 respectively.

[2] = tested on: DU145 prostate cancer cells; experiment: MTS cell viability assay in DU145 prostate cancer cells
Description: as §1, §2

[3] = tested on: OVCAR5 ovarian cancer cells; experiment: MTS cell viability assay in OVCAR5 ovarian cancer cells; details: Homo sapiens, OVCAR-5, OVCAR5, 48 hr, 1% DMSO
Description: (§3) Each type of cells (5,000 or 10,000 cells/well) were treated with different concentration (0.1 μM to 20 μM in 1% DMSO of cisplatin or Compound 2, 9, 12, 16 or 22 respectively for 48 hr). Then, MTS assays for cell viability were carried out to determine the IC50 values. Four samples were tested for each test compound at each concentration for each type of cells, and the averaged data were shown in Table 4 and FIGS. 6-8.

[4] = tested on: A2780 cisplatin-resistant ovarian cancer cells; experiment: MTS cell viability assay in A2780 cisplatin-resistant ovarian cancer cells; details: Homo sapiens, A2780, 48 h, A2780 cisplatin-resistant, 48 hr, 1% DMSO, MTS
Description: as §3

[5] = Homo sapiens, A2058, 48 h, A2058, compound in DMSO, 48 hr, MTS (Table 2b), read-out: IC50 value, DMSO, A2058
[6] = Homo sapiens, DU-145, 48 h, DU145, compound in DMSO, 48 hr, MTS (Table 2b), read-out: IC50 value, DMSO, DU145
[7] = Homo sapiens, A2058, 48 h, 0.05 to 10 μM in 1% DMSO, MTS (Table 2a), read-out: A2058 IC50
[8] = Homo sapiens, DU-145, 48 h, DU145, 48 hr, 0.05 to 10 μM in 1% DMSO, MTS (Table 2a), read-out: DU145 IC50
[9] = A2058, compound in DMSO, 48 hr, MTS (Table 2b), read-out: IC50 value, DMSO, A2058
[10] = Homo sapiens, A2058, 48 h, A2058, compound in water, 48 hr, MTS (Table 2b), read-out: IC50 value, Water, A2058
[11] = DU145, compound in DMSO, 48 hr, MTS (Table 2b), read-out: IC50 value, DMSO, DU145
[12] = Homo sapiens, DU-145, 48 h, DU145, compound in water, 48 hr, MTS (Table 2b), read-out: IC50 value, Water, DU145

Compound: CC(=O)OC1C(=O)N(Cc2ccccc2)c2ccc(-c3cccnc3)cc21 (stereo not shown) [Compound 14, 3-Acetoxy-N-Benzyl-5-(pyridin-3-yl)indoline-2-one]
- IC50 [1, 7]: > 5000 nM
- IC50 [2, 8]: > 5000 nM

Compound: O=C1C(=O)N(Cc2ccc(-c3cccnc3)cc2)c2ccc(-c3cccnc3)cc21 [Compound 123]
- IC50 [1, 9]: 380 nM
- IC50 [1, 10]: 800 nM
- IC50 [2, 11]: 600 nM
- IC50 [2, 12]: 2300 nM

Compound: O=C1C(=O)N(Cc2ccsc2)c2ccc(-c3cccnc3)cc21 [Compound 16, N-(3-Thienylmethyl)-5-(pyridin-3-yl)indoline-2,3-dione]
- IC50 [1, 7]: 1800 nM
- IC50 [3]: 1700 nM
- IC50 [4]: 500 nM
- IC50 [2, 8]: 900 nM

Compound: O=C1C(O)c2cc(-c3cccnc3)ccc2N1Cc1ccccc1 (stereo not shown) [Compound 13, N-Benzyl-3-hydroxy-5-(pyridin-3-yl)indoline-2-one]
- IC50 [1, 7]: 2300 nM
- IC50 [2, 8]: 2500 nM

Compound: O=C1C(=O)N(C/C=C/c2ccccn2)c2ccc(-c3cccnc3)cc21 [Compound 110]
- IC50 [1, 5]: 580 nM
- IC50 [2, 6]: 470 nM

Compound: CO/N=C1/C(=O)N(Cc2ccccc2)c2ccc(-c3cccnc3)cc21 [Compound 34]
- IC50 [1, 7]: > 5000 nM
- IC50 [2, 8]: > 5000 nM

Compound: O=C1C(=O)N(Cc2cccc(-c3cccnc3)c2)c2ccc(-c3cccnc3)cc21 [Compound 119]
- IC50 [1, 5]: 1400 nM
- IC50 [2, 6]: 2300 nM

Compound: O=C1C(=O)N(Cc2ccc(I)cc2)c2ccc(-c3cccnc3)cc21 [Compound 121]
- IC50 [1, 5]: 350 nM
- IC50 [2, 6]: 500 nM

Compound: O=C1/C(=N/O)c2cc(-c3cccnc3)ccc2N1Cc1ccccc1 [Compound 33]
- IC50 [1, 7]: > 5000 nM
- IC50 [2, 8]: > 5000 nM

Compound: O=C1C(=O)N(C/C=C/c2ccncc2)c2ccc(-c3cccnc3)cc21 [Compound 107]
- IC50 [1, 9]: 2000 nM
- IC50 [1, 10]: 1600 nM
- IC50 [2, 11]: 960 nM
- IC50 [2, 12]: 740 nM

Compound: C[Si](C)(C)CCOCN1C(=O)C(=O)c2cc(I)ccc21 [Compound 6]
- IC50 ([1]; Homo sapiens, A2058, 48 hr, 0.05 to 10 μM in 1% DMSO, MTS (Table 2a), read-out: A2058 IC50): 6900 nM
- IC50 ([2]; Homo sapiens, DU-145, DU145, 48 hr, 0.05 to 10 μM in 1% DMSO, MTS (Table 2a), read-out: DU145 IC50): 4600 nM

Compound: O=C1C(=O)N(Cc2ccc(-c3cccnc3)cc2)c2ccc(-c3cccnc3)cc21 [Compound 122]
- IC50 [1, 5]: 380 nM
- IC50 [2, 6]: 580 nM

Compound: O=C1C(=O)N(Cc2cccc(-c3cccnc3)c2)c2ccc(-c3cccnc3)cc21 [Compound 120]
- IC50 [1, 9]: 1200 nM
- IC50 [1, 10]: 1900 nM
- IC50 [2, 11]: 2300 nM
- IC50 [2, 12]: 4100 nM

Compound: O=C1C(=O)N(C/C=C/c2ccc3ccccc3n2)c2ccc(-c3cccnc3)cc21 [Compound 115]
- IC50 [1, 9]: 680 nM
- IC50 [1, 10]: 1900 nM
- IC50 [2, 11]: 1400 nM
- IC50 [2, 12]: 1900 nM

Compound: O=C1C(=O)N(C/C=C/c2ccncc2)c2ccc(-c3cccnc3)cc21 [Compound 106]
- IC50 [1, 5]: 1400 nM
- IC50 [2, 6]: 740 nM

Compound: O=C1C(=O)N(C/C=C/c2ccc3ccccc3n2)c2ccc(-c3cccnc3)cc21 [Compound 114]
- IC50 [1, 5]: 650 nM
- IC50 [2, 6]: 1000 nM

Compound: O=C1C(=O)N(C/C=C/c2ccccc2)c2ccc(-c3cccc([N+](=O)[O-])c3)cc21 [Compound 101]
- IC50 [1, 5]: 2200 nM
- IC50 [2, 6]: 2100 nM

Compound: CN1C(=O)C(=O)c2cc(-c3cccnc3)ccc21 [Compound 7]
- IC50 [1, 7]: 4200 nM
- IC50 [2, 8]: 4300 nM

Compound: O=C1C(=O)N(C/C=C/c2cccnc2)c2ccc(-c3cccnc3)cc21 [Compound 108]
- IC50 [1, 5]: 500 nM
- IC50 [2, 6]: 450 nM

Compound: O=C1C(=O)N(C/C=C/c2ccccn2)c2ccc(-c3cccnc3)cc21 [Compound 111]
- IC50 [1, 9]: 580 nM
- IC50 [1, 10]: 840 nM
- IC50 [2, 11]: 480 nM
- IC50 [2, 12]: 500 nM

Compound: O=C1C(=O)N(Cc2ccccc2-c2cccnc2)c2ccc(-c3cccnc3)cc21 [Compound 118]
- IC50 [1, 5]: 3300 nM
- IC50 [2, 6]: > 5000 nM

Compound: O=C1C(=O)N(C/C=C/c2cccnc2Cl)c2ccc(-c3cccnc3)cc21 [Compound 116]
- IC50 [1, 5]: 390 nM
- IC50 [2, 6]: 660 nM

Compound: O=C1Cc2cc(-c3cccnc3)ccc2N1Cc1ccccc1 [Compound 15, N-Benzyl-5-(pyridin-3-yl)indoline-2-one]
- IC50 [1, 7]: > 5000 nM
- IC50 [2, 8]: > 5000 nM

Compound: O=C1C(=O)N(Cc2cccs2)c2ccc(-c3cccnc3)cc21 [Compound 12, N-(2-Thienylmethyl)-5-(pyridin-3-yl)indoline-2,3-dione]
- IC50 [1, 7]: 2000 nM
- IC50 [3]: 2200 nM
- IC50 [4]: 900 nM
- IC50 [2, 8]: 910 nM

Other lines, results leading:

- IC50 [1, 5]: 4400 nM
- IC50 [2, 6]: 4300 nM
Compound: O=C1C(=O)N(Cc2ccccn2)c2ccc(-c3cccnc3)cc21 [Compound 103]

- IC50 [1, 7]: 1900 nM
- IC50 [2, 8]: 4100 nM
Compound: O=C1C(=O)N(Cc2ccccc2)c2ccc(-c3ccccc3)cc21 [Compound 32]

- IC50 [1, 7]: 8400 nM
- IC50 [2, 8]: 8500 nM
Compound: O=C1C(=O)N(Cc2ccccc2)c2cc(Br)ccc21 [Compound 3, N-benzyl-6-bromoindoline-2,3-dione]

- IC50 [1, 5]: > 5000 nM
- IC50 [2, 6]: > 5000 nM
Compound: CCN(CCN1C(=O)C(=O)c2cc(-c3cccnc3)ccc21)c1ccccc1 [Compound 112]

- IC50 [1, 7]: > 10000 nM
- IC50 [2, 8]: > 10000 nM
Compound: O=C1C(=O)N(Cc2ccccc2)c2cccc(Br)c21 [Compound 5]

- IC50 [1, 5]: 1900 nM
- IC50 [2, 6]: 3400 nM
Compound: O=C1C(=O)N(Cc2ccccc2I)c2ccc(-c3cccnc3)cc21 [Compound 117]

- IC50 [1, 7]: > 5000 nM
- IC50 [2, 8]: > 5000 nM
Compound: O=C1C(=O)N(CCO)c2ccc(-c3cccnc3)cc21 [Compound 10]

- IC50 [1, 9]: 4800 nM
- IC50 [1, 10]: 4700 nM
- IC50 [2, 11]: 2500 nM
- IC50 [2, 12]: 4600 nM
Compound: O=C1C(=O)N(CCCc2cccnc2)c2ccc(-c3cccnc3)cc21 [Compound 105]

- IC50 [1, 7]: 2500 nM
- IC50 [2, 8]: > 5000 nM
Compound: CCCc1ccc2c(c1)C(=O)C(=O)N2CCCc1ccccc1 [Compound 20]

- IC50 [1, 7]: 3200 nM
- IC50 [2, 8]: > 5000 nM
Compound: CC(C)c1ccc2c(c1)C(=O)C(=O)N2CCCc1ccccc1 [Compound 21]

- IC50 [1, 7]: 1400 nM
- IC50 [2, 8]: 870 nM
Compound: O=C1C(=O)N(C/C=C/c2ccccc2)c2ccc(-c3ccsc3)cc21 [Compound 30]

- IC50 [1, 7]: 350 nM
- IC50 [2, 8]: 260 nM
Compound: O=C1C(=O)N(C/C=C/c2ccccc2)c2ccc(-c3cccnc3F)cc21 [Compound 31]

- IC50 [1, 7]: 1600 nM
- IC50 [2, 8]: 1300 nM
Compound: O=C1C(=O)N(CCCc2ccccc2)c2ccc(-c3ccncc3)cc21 [Compound 28]

- IC50 [1, 7]: 2900 nM
- IC50 [2, 8]: 2500 nM
Compound: O=C1C(=O)N(CCCc2ccccc2)c2ccc(-c3ccsc3)cc21 [Compound 24]

- IC50 [1, 9]: 2100 nM
- IC50 [2, 11]: 910 nM
Compound: O=C1C(=O)N(CCCc2cccnc2)c2ccc(-c3cccnc3)cc21 [Compound 104]

- IC50 [1, 7]: 5900 nM
- IC50 [2, 8]: 4200 nM
Compound: O=C1C(=O)N(CCCc2ccccc2)c2ccc(-c3ccccc3)cc21 [Compound 23]

- IC50 [1, 7]: > 5000 nM
- IC50 [2, 8]: 5000 nM
Compound: O=C1C(=O)N(CCc2ccccc2)c2ccc(-c3cccnc3)cc21 [Compound 8]

- IC50 [1, 7]: > 10000 nM
- IC50 [2, 8]: > 10000 nM
Compound: O=C1C(=O)N(Cc2ccccc2)c2cc(-c3ccccc3)ccc21 [Compound 1]

- IC50 [1, 7]: 3800 nM
- IC50 [2, 8]: 2400 nM
Compound: O=C1C(=O)N(Cc2ccccc2)c2ccc(I)cc21 [Compound 4, N-benzyl-5-iodoindoline-2,3-dione]

- IC50 [1, 9]: 3700 nM
- IC50 [2, 11]: 4100 nM
Compound: O=C1C(=O)N(Cc2ccccn2)c2ccc(-c3cccnc3)cc21 [Compound 102]

- IC50 [1, 7]: 2000 nM
- IC50 [2, 8]: 1500 nM
Compound: O=C1C(=O)N(CCCc2ccccc2)c2ccc(-c3ccco3)cc21 [Compound 25]

- IC50 [1, 10]: > 5000 nM
- IC50 [2, 12]: > 5000 nM
Compound: CCN(CCN1C(=O)C(=O)c2cc(-c3cccnc3)ccc21)c1ccccc1 [Compound 113]

- IC50 [1, 7]: > 5000 nM
- IC50 [2, 8]: > 5000 nM
Compound: Cc1ccc2c(c1)C(=O)C(=O)N2CCCc1ccccc1 [Compound 19]

- IC50 [1, 7]: 400 nM
- IC50 [2, 8]: 360 nM
Compound: O=C1C(=O)N(C/C=C/c2ccccc2)c2ccc(-c3cncnc3)cc21 [Compound 27]

- IC50 [1, 7]: > 5000 nM
- IC50 [2, 8]: > 5000 nM
Compound: O=C1C(=O)N(CCOCCO)c2ccc(-c3cccnc3)cc21 [Compound 11]

- IC50 [1, 7]: 700 nM
- IC50 [2, 8]: 530 nM
Compound: O=C1C(=O)N(CCCc2ccccc2)c2ccc(-c3cncnc3)cc21 [Compound 26]

- IC50 [1, 7]: 300 nM
- IC50 [2, 8]: 330 nM
Compound: O=C1C(=O)N(C/C=C/c2ccccc2)c2ccc(-c3ccc(F)nc3)cc21 [Compound 29]
